Measurements taken from patent US20080220056A1, “Treatment for liver disease” (UNIVERSITY OF SOUTHAMPTON, priority 2002, published 2008).

Columns and labels:
Format in all cases: cell-based
Bcl-2 protein = assay: Western blotting for Bcl-2 in hepatic stellate cells; details: cycloheximide 18 hours with TIMP-1 (200 ng/ml and 100 ng/ml both printed) versus cycloheximide alone
Protocol: Cultured hepatic stellate cells were harvested with a sterile cell scraper, pelleted by centrifugation, and then resuspended in 500 μl of TE buffer (10 mmol/Tris-HCl, 1 mmol/liter EDTA, pH 8.0) before sonication for 15 min. 100 μl of PicoGreen (Molecular Probes, Inc., Eugene, Oreg.) at 1:200 dilution was added to 100 μl of sample and incubated in the dark at room temperature for 5 min. Standards were made from herring sperm DNA. Fluorescence was measured using a Cytofluor II Microwell Fluorescence reader (Perceptive Biosystems, Framingham, Mass.) at standard wavelengths (excitation 485 nm, emission 530 nm). Concentrations of double-stranded DNA in the samples were calculated from the standard curve. […]
The protein Bcl-2 regulates the properties of cells to undergo apoptosis by interpolating into the mitochondria membrane (Hengartner, supra). […] To define changes in the protein level of Bcl-2, extracts from hepatic stellate cells treated with cycloheximide for 18 hours, either in the presence and absence of 200 ng/ml TIMP-1, were analyzed by western blotting. Equal quantities (determined by protein concentration) of protein extracts from hepatic stellate cells exposed to: serum alone; cycloheximide alone; or cycloheximide with TIMP-1 protein (100 ng/ml) were assessed by blotting.

[1] = tested on: Fas and Fas ligand in human hepatic stellate cells; assay: Enzyme-linked immunosorbent assay for Fas and Fas ligand; details: TIMP-1 142.5 ng/ml, 18 hours, serum deprivation, versus BSA alone
Protocol: Human hepatic stellate cells were grown to confluence and exposed to BSA with and without TIMP-1. Cells and supernatants were harvested, and protein extracts were assayed for Fas and Fas ligand by commercial enzyme-linked immunosorbent assay following the manufacturer's instructions (Calbiochem). The quantities of Fas and Fas ligand were normalized to cell number by DNA quantification using the PicoGreen technique.
Experiments were next performed to determine whether TIMP-1 regulated Fas ligand cleavage in human hepatic stellate cells. Hepatic stellate cells were incubated for 18 hours in conditions of absolute serum deprivation with BSA or BSA with TIMP-1 (142.5 ng/ml). The cells were extracted, and supernatants were collected. After normalizing for cell number (by DNA concentration using the PicoGreen technique), these extracts were analyzed by enzyme-linked immunosorbent assay for Fas and Fas ligand as described under Materials and Methods. […] Supernatant Fas and Fas ligand protein levels were undetectable in all experimental conditions (data not shown, n 3).

[2] = tested on: rat hepatic stellate cells; assay: Propidium iodide FACS analysis of DNA strand breaks in rat hepatic stellate cells; details: 1.5 μmol/L gliotoxin, two hours
Protocol: (§1) Hepatic stellate cells cultured in 35-mm diameter dishes (Greiner) were harvested, pelleted by centrifugation and DNA fragmentation determined as outlined elsewhere (Elsharkawy et al., Hepatology (1999) 30:761-769). Propidium Iodide Flow-Activated Cell Sorting Analysis Detached cells were pelleted by centrifugation, washed in PBS, and resuspended in HYPO buffer (0.1% wt/vol) Na3Citrate and 0.1% (wt/vol) Triton™ X-100 containing […] propidium iodide and incubated for 1 hour. The cells were then analyzed by fluorescence-activated cell sorter (FACS) with a Becton Dickinson (San Jose, Calif.) FACScan instrument using a 488 nm excitation wavelength with a band pass filter set at 530 nm. Attached cells were scraped in HYPO buffer after washing cells with PBS.
To characterize the extent and significance of apoptosis in response to gliotoxin, rat hepatic stellate cell DNA strand breaks were assessed by FACS analysis of propidium iodide stained cells. Culture-activated (14-day) rat hepatic stellate cells were treated with 0.05% (vol/vol) DMSO vehicle control or with 1.5 lμmol/L gliotoxin for two hours, harvested, and stained with propidium iodide as outlined in the materials and methods section.

[3] = tested on: human hepatic stellate cells; assay: DNA cleavage in human hepatic stellate cells (ladder, propidium iodide, TUNEL); details: human HSC, gliotoxin
Protocol: as §1
(§2) Rat and human hepatic stellate cells and rat liver tissue were fixed in 4% paraformaldehyde in PBS or 10% formalin in PBS, respectively, before being stained with Giemsa. DNA fragmentation was examined by labeling of 3′-OH DNA ends by the enzymatic addition of digoxygenin-labeled deoxyuridine triphosphate (dUTP) using terminal deoxynucleotidyl transferase using a kit from Boehringer essentially as described by the manufacturer. Rat liver tissue sections were pretreated with diethyl pyrocarbonate as described previously (Stahelin et al., J. Clin. Pathol. Mol. Pathol. (1998) 51:204-208) to reduce nonspecific reaction.

[4] = tested on: rat hepatic stellate cells; assay: TUNEL staining of cultured rat hepatic stellate cells; details: 1.5 μmol/L gliotoxin, two hours
Description: as §2
DNA strand breaks were also characterized by TUNEL staining. Culture-activated (14-day) rat hepatic stellate cells were treated with 0.05% (vol/vol) DMSO or 1.5 μmol/L gliotoxin for two hours and DNA strand breaks examined by TUNEL staining as outlined in Materials and Methods.

[5] = tested on: rat hepatic stellate cells; assay: Low molecular weight DNA fragmentation (nucleosomal ladder) in rat hepatic stellate cells; details: 37.5 μmol/L gliotoxin

Row | Compound | Bcl-2 protein expression (Bcl-2 protein) | cellular Fas or Fas ligand protein levels [1] | propidium iodide nuclei fluorescence (DNA cleavage) [2] | DNA cleavage by propidium iodide or TUNEL staining [3] | cleavage of DNA to oligonucleosomal-length fragments [3] | TUNEL staining [4] | level of DNA cleavage at high concentration versus lower concentrations [5]
1 | TIMP-1: recombinant tissue inhibitor of matrix metalloproteases 1 (Biogenesis) | enhanced levels of Bcl-2 protein expression | had no effect on cellular Fas or Fas ligand protein levels |  |  |  |  | 
2 | CN1C(=O)[C@]23CC4=CC=C[C@H](O)[C@H]4N2C(=O)[C@@]1(CO)SS3 [gliotoxin] |  |  | broad low level of fluorescence | DNA cleavage was detected | did not cleave their DNA to oligonucleosomal-length fragments | extensive TUNEL-positive staining | reduction in the level of DNA cleavage detected
